Measured values reported in patent publication US20190076392A1, “METHODS FOR TREATING CANCER” (Boston Biomedical, Inc., priority 2016, published 2019).
pIC50: −log10 of the molar value.

Tests used:
[1] = test system: Paca-2 human pancreatic cancer; experiment: Human PDAC xenograft tumor (Paca-2) in nude mice; type: in vivo
Source text: FIGS. 5A and 5B show an exemplary effect of a 2-acetylnaphtho[2,3-b]furan-4,9-dione and gemcitabine treatment on pancreatic ductal adenocarcinoma (PDAC) in an xenograft tumor mouse model according to certain embodiments of the present disclosure.
The effects of 2-acetylnaphtho[2,3-b]furan-4,9-dione, a compound of formula (I), on a human PDAC xenograft tumor (Paca-2) in nude mice were studied. Specifically, immunosuppressed mice with Paca-2 human pancreatic cancer were given 2-acetylnaphtho[2,3-b]furan-4,9-dione (20 mg/kg) or vehicle control IP daily or gemcitabine (120 mg/kg) or vehicle control IP every 3 days. Tumor size was evaluated periodically during treatment. Each point represents the mean+SEM of five tumors.

[2] = test system: human pancreatic adenocarcinoma (Panc-1); experiment: Human pancreatic adenocarcinoma (Panc-1) xenograft in immunosuppressed mice; type: in vivo
Source text: FIG. 6 show an exemplary effect of 2-acetylnaphtho[2,3-b]furan-4,9-dione, gemcitabine (Gemzar), and the combination of 2-acetylnaphtho[2,3-b]furan-4,9-dione and gemcitabine treatment on tumor volume in an xenograft tumor mouse model according to certain embodiments of the present disclosure.
The effects of 2-acetylnaphtho[2,3-b]furan-4,9-dione, a compound of formula (I), gemcitabine, and a combination of 2-acetylnaphtho[2,3-b]furan-4,9-dione and gemcitabine were studied. Specifically, immunosuppressed mice with established human pancreatic adenocarcinoma (Panc-1) were treated with vehicle control, 2-acetylnaphtho[2,3-b]furan-4,9-dione (100 mg/kg, PO, bid), gemcitabine (Gemzar, 80 mg/kg, IV, q3d), or the combination of 2-acetylnaphtho[2,3-b]furan-4,9-dione and gemcitabine. Tumor size was evaluated periodically during treatment. Each point represents the mean+SEM of five tumors.

STAT3 pathway = details: according to U.S. Pat. No. 8,877,803; read-out: STAT3 pathway activity, cellular IC50; cited from earlier work
human p-STAT3 = biological target: T1, human p-STAT3 (Homo sapiens, UniProt P40763); experiment: Immunofluorescence staining of xenograft tumor cells for p-STAT3; type: in vivo; details: human colon cancer xenograft tumor (SW480) in nude mice; treated vs control
T1 construct: p-STAT3 and β-CATENIN protein levels in human colon cancer xenograft tumor (SW480) in nude mice; endogenous in cells; host or cells: SW480 human colon cancer xenograft tumor in nude mice
T1 sequence (P40763 whole entry): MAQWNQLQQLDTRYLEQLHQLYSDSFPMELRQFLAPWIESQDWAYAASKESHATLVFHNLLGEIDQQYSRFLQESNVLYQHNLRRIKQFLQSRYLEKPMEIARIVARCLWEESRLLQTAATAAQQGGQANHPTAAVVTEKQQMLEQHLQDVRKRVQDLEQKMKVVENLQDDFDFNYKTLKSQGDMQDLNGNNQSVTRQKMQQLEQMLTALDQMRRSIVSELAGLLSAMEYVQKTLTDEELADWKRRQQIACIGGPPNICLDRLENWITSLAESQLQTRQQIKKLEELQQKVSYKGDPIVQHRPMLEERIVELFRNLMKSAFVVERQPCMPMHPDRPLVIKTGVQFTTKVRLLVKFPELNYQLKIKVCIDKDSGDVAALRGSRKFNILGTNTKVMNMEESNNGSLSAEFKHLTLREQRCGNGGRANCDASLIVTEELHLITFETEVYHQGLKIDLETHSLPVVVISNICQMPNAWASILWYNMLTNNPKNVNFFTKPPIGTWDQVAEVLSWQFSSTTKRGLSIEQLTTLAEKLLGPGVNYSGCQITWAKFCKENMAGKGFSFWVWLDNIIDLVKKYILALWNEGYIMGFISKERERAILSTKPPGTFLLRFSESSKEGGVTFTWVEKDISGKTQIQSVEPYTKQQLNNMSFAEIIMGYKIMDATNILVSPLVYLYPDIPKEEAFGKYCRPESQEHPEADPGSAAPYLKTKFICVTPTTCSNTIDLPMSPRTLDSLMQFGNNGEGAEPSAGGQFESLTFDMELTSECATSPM
Source text: (§1) The effects of 2-acetylnaphtho[2,3-b]furan-4,9-dione, a compound of formula (I), to tumor cells were studied by analyzing the tumor cells treated with the compound or without the compound (control) with immunofluorescence staining using antibodies specific for human p-STAT3 and 13-CATENIN.

STAT3 = experiment: Clinical trials, overall survival by STAT3/pSTAT3 level; type: in vivo, human; details: patients with higher expression levels of STAT3 (pSTAT3 before treatment), at least in CRC patients
Source text: Thus, the higher the level of pSTAT3 found in a cancer patient before treatment, at least in CRC patients, the higher the overall survival (OS) upon administering a treatment comprising at least one compound of formula (I).

β-CATENIN = experiment: Immunofluorescence staining of xenograft tumor cells for β-CATENIN; type: in vivo; details: human colon cancer xenograft tumor (SW480) in nude mice; treated vs control
Source text: as §1

[3] = Phase Ib study in mPDAC patients, safety and adverse events; type: in vivo, human; details: in combination with gemcitabine and nab-paclitaxel
Source text: The effects of 2-acetylnaphtho[2,3-b]furan-4,9-dione, a compound of formula (I), in combination with gemcitabine and nab-paclitaxel in patients with metastatic pancreatic ductal adenocarcinoma (mPDAC) were studied in a Phase Ib extension, open label, multi-center study.
In that clinical study, the safety, tolerability and the recommended Phase II dose (RP2D), PK profile, and signs of anti-cancer activity of 2-acetylnaphtho[2,3-b]furan-4,9-dione in combination with nab-paclitaxel and gemcitabine were assessed in adult patients with metastatic pancreatic cancer. In each treatment cycle, 2-acetylnaphtho[2,3-b]furan-4,9-dione was administered at 240 mg BID for 4 weeks in combination with nab-paclitaxel 125 mg/m^2 and gemcitabine 1000 mg/m^2 administered weekly for 3 out of the 4 weeks. The treatment continued in 28-day cycles.
The patients received continuous oral administration of BBI-608 twice daily in 28 day cycles. A standard gemcitabine and nab-paclitaxel regimen was administered on days 1, 8 and 15 of every 28 day study cycle. Specifically, BBI-608 was administered at 240 mg BID in combination with gemcitabine 1000 mg/m^2 and nab-paclitaxel 125 mg/m^2 administered weekly for 3 out every 4 weeks until progression of disease, unacceptable toxicity, or another discontinuation criterion was met. Pharmacokinetics and pharmacodynamics were evaluated and objective tumor response was assessed every 8 weeks using Response Evaluation Criteria In Solid Tumors (RECIST 1.1).

## Nc1ccn([C@@H]2O[C@H](CO)[C@@H](O)C2(F)F)c(=O)n1 [gemcitabine, reference compound]
[1]; 120 mg/kg IP every 3 days
  tumor growth (tumor size): only a marginal effect on tumor growth
[2]; Gemzar, 80 mg/kg, IV, q3d
  tumor growth (tumor size): certain effects in inhibiting tumor growth

## CC(=O)c1cc2c(o1)C(=O)c1ccccc1C2=O [2-acetylnaphtho[2,3-b]furan-4,9-dione]
STAT3 pathway
  pIC50: ~6.60
Human p-STAT3
  tumor cells with positive staining for human p-STAT3: effectively inhibited
[1]; 20 mg/kg IP daily
  tumor growth (tumor size): effective at inhibiting tumor growth
STAT3
  overall survival after treatment: prolonged overall survival
β-CATENIN
  tumor cells with positive staining for β-CATENIN: effectively inhibited
[2]; 100 mg/kg, PO, bid
  tumor growth (tumor size): certain effects in inhibiting tumor growth
[3]
  grade 3 AEs related to napabucasin, number of patients: 9 patients
  grade 3 dehydration related to napabucasin, number of patients: 1 patient
  grade 3 diarrhea related to napabucasin, number of patients: 1 patient
  grade 3 fatigue related to napabucasin, number of patients: 5 patients
  grade 3 hypokalemia related to napabucasin, number of patients: 1 patient
  grade 3 nausea related to napabucasin, number of patients: 1 patient
  most common adverse events (AEs) related to napabucasin: grade 1 diarrhea, abdominal pain, nausea, and fatigue
